Reference: ChEMBL document CHEMBL1138565, “Docking, 3D-QSAR studies and in silico ADME prediction on c-Src tyrosine kinase inhibitors” (Eur J Med Chem, 2009)

Biological target: Proto-oncogene tyrosine-protein kinase Src (Homo sapiens, UniProt P12931)
Assay: Inhibition of c-Src

Sequence of Proto-oncogene tyrosine-protein kinase Src (P12931 2-536 limits assumed): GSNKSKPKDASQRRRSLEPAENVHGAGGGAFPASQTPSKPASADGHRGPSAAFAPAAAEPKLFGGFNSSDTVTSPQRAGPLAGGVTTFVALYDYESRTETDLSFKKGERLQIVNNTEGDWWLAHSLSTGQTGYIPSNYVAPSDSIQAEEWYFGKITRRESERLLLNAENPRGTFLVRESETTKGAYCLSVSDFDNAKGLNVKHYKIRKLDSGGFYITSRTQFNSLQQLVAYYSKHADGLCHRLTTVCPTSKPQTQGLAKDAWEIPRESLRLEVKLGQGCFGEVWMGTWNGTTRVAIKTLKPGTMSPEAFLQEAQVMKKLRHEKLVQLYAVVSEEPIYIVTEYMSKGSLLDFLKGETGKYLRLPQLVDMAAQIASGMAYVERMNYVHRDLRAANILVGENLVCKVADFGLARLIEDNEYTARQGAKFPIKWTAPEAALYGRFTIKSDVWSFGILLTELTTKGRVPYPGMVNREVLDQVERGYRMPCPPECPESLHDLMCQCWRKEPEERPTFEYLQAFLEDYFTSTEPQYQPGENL

Nc1ncnc2c1c(-c1ccccc1)cn2C1CC1
IC50: 251 nM

OC(Cn1ncc2c(NCc3ccc(F)cc3)ncnc21)c1ccccc1 (centres undefined)
Ki: 10000 nM

ClC(Cn1ncc2c(NCCc3ccccc3)ncnc21)c1ccccc1 (centres undefined)
Ki: 2000 nM

CCOC(=O)C[C@@H]1C[C@H](n2cc(-c3ccccc3)c3c(N)ncnc32)CN1C(=O)OC(C)(C)C
IC50: 5010 nM

Nc1ncnc2c1c(-c1ccc(O)cc1)cn2C1CCCC1
IC50: 20 nM

CC(C)(C)OC(=O)N1C[C@H](n2cc(-c3ccc(O)cc3)c3c(N)ncnc32)C[C@H]1CO
IC50: 25.1 nM

CCOC(=O)C[C@@H]1C[C@H](n2cc(-c3ccccc3)c3c(N)ncnc32)CN1
IC50: 15.8 nM

Nc1ncnc2c1c(-c1ccc(O)cc1)cn2[C@H]1CN[C@H](CO)C1
IC50: 100 nM

Nc1ncnc2c1c(-c1ccccc1)cn2-c1ccccc1
IC50: 100 nM

COc1cccc(-c2cn(C3CCN(CCO)CC3)c3ncnc(N)c23)c1
IC50: 25.1 nM

Nc1ncnc2c1c(-c1ccccc1)cn2[C@@H](CO)c1ccccc1
IC50: 501 nM

O=C(O)c1cnc2c(cnn2/C=C/c2ccccc2)c1NCc1ccccc1
Ki: 3980 nM

Nc1ncnc2c1c(-c1ccccc1)cn2CC(CO)CO
IC50: 200 nM

COc1cccc(-c2cn(-c3ccc(CCN4CCC(O)CC4)cc3)c3ncnc(N)c23)c1
IC50: 20 nM

CCOC(=O)C[C@@H]1C[C@H](n2cc(-c3ccc(O)cc3)c3c(N)ncnc32)CN1
IC50: 5.01 nM

O=c1[nH]cnc2c1c(-c1ccccc1)cn2-c1ccccc1
IC50: 10000 nM

Nc1ncnc2c1c(-c1cccc(O)c1)cn2C1CCCC1
IC50: 1 nM

Nc1ncnc2c1c(-c1ccc(O)cc1)cn2CC(CO)CO
IC50: 501 nM

Nc1ncnc2c1c(-c1ccc(O)cc1)cn2C1CCC1
IC50: 10 nM

CCOC(=O)c1ccc(-c2cn(-c3ccccc3)c3ncnc(N)c23)cc1
IC50: 10000 nM

COc1cccc(-c2cn(C3CCN(CC(=O)N(C)C)CC3)c3ncnc(N)c23)c1
IC50: 63.1 nM

Nc1ncnc2c1c(-c1ccc(O)cc1)cn2[C@@H]1CN[C@H](CO)C1
IC50: 50.1 nM

Nc1ncnc2c1c(-c1ccccc1)cn2C1CCC1
IC50: 100 nM

CCOC(=O)C[C@@H]1C[C@H](n2cc(-c3ccc(O)cc3)c3c(N)ncnc32)CN1C(=O)OC(C)(C)C
IC50: 316 nM

COc1cccc(-c2cn(C3CCCC3)c3ncnc(N)c23)c1
IC50: 2 nM

Nc1ncnc2c1c(-c1ccccc1)cn2[C@H](CO)c1ccccc1
IC50: 5010 nM

COc1cccc(-c2cn(-c3ccc(CC(=O)NCCO)cc3)c3ncnc(N)c23)c1
IC50: 20 nM

CCOC(=O)C[C@@H]1C[C@@H](n2cc(-c3ccc(O)cc3)c3c(N)ncnc32)CN1C(=O)OC(C)(C)C
IC50: 31.6 nM

COc1cccc(-c2cn(-c3ccc(CCN(C)CCO)cc3)c3ncnc(N)c23)c1
IC50: 31.6 nM

COC(=O)CN1CCC(n2cc(-c3cccc(OC)c3)c3c(N)ncnc32)CC1
IC50: 79.4 nM

COC(=O)CN1CCC(n2cc(-c3cccc(O)c3)c3c(N)ncnc32)CC1
IC50: 1 nM

Nc1ncnc2c1c(-c1cccc(Cl)c1)cn2-c1ccccc1
IC50: 200 nM

COc1ccc(-c2cn(C3CCCC3)c3ncnc(N)c23)cc1
IC50: 79.4 nM

CCOC(=O)C[C@@H]1C[C@@H](n2cc(-c3ccccc3)c3c(N)ncnc32)CN1
IC50: 631 nM

Nc1ncnc2c1c(-c1cccc(O)c1)cn2C1CCC1
IC50: 3.98 nM

Clc1ncnc2c1c(-c1ccccc1)cn2-c1ccccc1
IC50: 7940 nM

CCOC(=O)C[C@@H]1C[C@@H](n2cc(-c3ccccc3)c3c(N)ncnc32)CN1C(=O)OC(C)(C)C
IC50: 398 nM

COc1cccc(-c2cn(-c3cccc(CO)c3)c3ncnc(N)c23)c1
IC50: 63.1 nM

Nc1ncnc2c1c(-c1ccccc1)cn2[C@@H]1CN[C@H](CO)C1
IC50: 126 nM

COc1ccccc1-c1cn(-c2ccccc2)c2ncnc(N)c12
IC50: 6310 nM

Nc1ncnc2c1c(-c1ccccc1)cn2C1CCCC1
IC50: 126 nM

COc1cccc(-c2cn(-c3ccccc3)c3ncnc(N)c23)c1
IC50: 50.1 nM

ClC(Cn1ncc2c(NCc3ccccc3)ncnc21)c1ccccc1 (centres undefined)
Ki: 3160 nM

Nc1ncnc2c1c(-c1ccccc1)cn2-c1ccc(CO)cc1
IC50: 20 nM

COc1ccc(-c2cn(C3CCC3)c3ncnc(N)c23)cc1
IC50: 200 nM

CC(C)(C)OC(=O)N1C[C@@H](n2cc(-c3ccccc3)c3c(N)ncnc32)C[C@H]1CO
IC50: 2000 nM

CC(C)(C)OC(=O)N1C[C@H](n2cc(-c3ccccc3)c3c(N)ncnc32)C[C@H]1CO
IC50: 126 nM

COc1cccc(-c2cn(C3CCC3)c3ncnc(N)c23)c1
IC50: 39.8 nM

CC(C)(C)OC(=O)N1C[C@@H](n2cc(-c3ccc(O)cc3)c3c(N)ncnc32)C[C@H]1CO
IC50: 316 nM

Nc1ncnc2c1c(-c1ccccc1)cn2-c1ccccc1CO
IC50: 316 nM

Nc1ncnc2c1c(-c1ccccc1)cn2CCC(CO)CO
IC50: 2510 nM

OCCNCCOc1ccc(-n2cc(-c3cccc(O)c3)c3cncnc32)cc1
IC50: 39.8 nM

CSc1nc(Nc2cccc(Cl)c2)c2cnn(CC(Cl)c3ccccc3)c2n1 (centres undefined)
Ki: 794 nM

Nc1ncnc2c1c(-c1ccccc1)cn2-c1ccccc1CNCCO
IC50: 5010 nM

Nc1ncnc2c1c(-c1ccccc1)cn2-c1cccc(CNCCO)c1
IC50: 10 nM

CN(C)C(=O)CN1CCC(n2cc(-c3cccc(O)c3)c3c(N)ncnc32)CC1
IC50: 3.16 nM

COc1cccc(-c2cn(C3CCN(CCN(C)CCO)CC3)c3ncnc(N)c23)c1
IC50: 6.31 nM

CCCNc1ncnc2c1cnn2CC(O)c1ccccc1 (centres undefined)
Ki: 10000 nM

COCCN(C)CCN1CCC(n2cc(-c3cccc(OC)c3)c3c(N)ncnc32)CC1
IC50: 50.1 nM

Nc1ncnc2c1c(-c1ccccc1)cn2-c1cccc(CO)c1
IC50: 63.1 nM

Nc1ncnc2c1c(-c1ccccc1)nn2-c1ccccc1
IC50: 501 nM

COc1cccc(-c2cn(CC(CO)CO)c3ncnc(N)c23)c1
IC50: 316 nM

CNc1ncnc2c1c(-c1ccccc1)cn2-c1ccccc1
IC50: 10000 nM

COc1cccc(-c2cn(-c3ccc(CNCCO)cc3)c3ncnc(N)c23)c1
IC50: 31.6 nM

COc1cccc(-c2cn(C3CCN(CC(N)=O)CC3)c3ncnc(N)c23)c1
IC50: 20 nM

COc1ccc(-c2cn(-c3ccccc3)c3ncnc(N)c23)cc1
IC50: 158 nM

Nc1ncnc2c1c(-c1ccccc1)cn2-c1ccc(CNCCO)cc1
IC50: 31.6 nM

Nc1ncnc2c1c(-c1ccccc1)cn2[C@H]1CN[C@H](CO)C1
IC50: 316 nM

CCOC(=O)C[C@@H]1C[C@@H](n2cc(-c3ccc(O)cc3)c3c(N)ncnc32)CN1
IC50: 100 nM
